According to patent publication US20050171116A1, “Enhancing the efficacy of tubercular drugs” (priority 2004, published 2005):

Columns and labels:
Format in all cases: cell-based, Mycobacterium Tuberculosis
Details in all cases: LJ medium, in vitro
[1] = test system: Isoniazid-Resistant strains of MTB
[2] = test system: Rifampicin-resistant strains of MTB
[3] = test system: Multi-Drug-Resistant strains of MTB

Measured: antibacterial efficacy

Cc1c(C)c2c(c(C)c1O)CC[C@@](C)(CCC[C@H](C)CCC[C@H](C)CCCC(C)C)O2 [Factor Alpha tx, α-tocopherol]
effective: all assays above
